According to ChEMBL document CHEMBL1154948, “Carbonic anhydrase inhibitors. Inhibition of transmembrane isoforms IX, XII, and XIV with less investigated anions including trithiocarbonate and dithiocarbamate” (Bioorg Med Chem Lett, 2010):

Key:
[1] = biological target: Carbonic anhydrase 12 (Homo sapiens) (UniProt O43570)
[2] = biological target: Carbonic anhydrase 9 (Homo sapiens) (UniProt Q16790); assay: Inhibition of human recombinant CA9 by stopped flow CO2 hydration assay
[3] = biological target: Carbonic anhydrase 14 (Homo sapiens) (UniProt Q9ULX7)
Sequence of Carbonic anhydrase 14 (Homo sapiens) (Q9ULX7 whole entry): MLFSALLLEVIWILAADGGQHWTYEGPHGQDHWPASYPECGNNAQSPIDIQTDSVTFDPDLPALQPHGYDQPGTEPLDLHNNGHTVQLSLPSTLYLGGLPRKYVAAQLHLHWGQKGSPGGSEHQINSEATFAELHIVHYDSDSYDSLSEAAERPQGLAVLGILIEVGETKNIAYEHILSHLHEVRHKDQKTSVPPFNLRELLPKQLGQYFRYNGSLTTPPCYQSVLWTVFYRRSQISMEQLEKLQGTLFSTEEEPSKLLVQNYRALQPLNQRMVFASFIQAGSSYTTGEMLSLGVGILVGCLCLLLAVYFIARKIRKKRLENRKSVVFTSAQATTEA
Description: Inhibition of human recombinant CA14 by stopped flow CO2 hydration assay

Sequence of Carbonic anhydrase 12 (Homo sapiens) (O43570 whole entry): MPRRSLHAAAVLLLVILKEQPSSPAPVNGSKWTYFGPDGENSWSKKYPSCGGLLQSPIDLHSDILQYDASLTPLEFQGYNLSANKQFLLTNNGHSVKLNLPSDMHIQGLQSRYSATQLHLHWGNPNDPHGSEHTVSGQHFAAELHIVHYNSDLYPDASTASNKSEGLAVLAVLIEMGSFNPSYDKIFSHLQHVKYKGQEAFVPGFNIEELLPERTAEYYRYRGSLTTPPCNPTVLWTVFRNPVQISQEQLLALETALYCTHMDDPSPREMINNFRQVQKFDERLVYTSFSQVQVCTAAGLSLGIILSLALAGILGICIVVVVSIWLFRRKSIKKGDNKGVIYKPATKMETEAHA

Molecule	Kinact [1] [mM]	Kinact [2] [mM]	Kinact [3] [mM]
SODIUM STANNATE	1.02		
O=P(O)(O)OP(=O)(O)O	63.9	46.3	0.76
O=[Se](=O)(O)O	138	183	49.6
CCN(CC)C(=S)S	0.0011	0.0014	0.001
SODIUM DIOXIDOTRIOXOOSMIUM	130	184	72.5
